Experimental findings from patent US7019144B2, “1,2,4-Triazole derivative, method for preparing the same, and pharmaceutical composition containing the same” (CJ Corp., priority 2002, dated 2006) are described below.

One assay has as its target T1, COX-2 (Mus musculus, UniProt Q05769).
T1 construct: host or cells: RAW 264.7 cells, aspirin-pretreated, then induced with interferon gamma and LPS
T1 sequence (Q05769 18-604): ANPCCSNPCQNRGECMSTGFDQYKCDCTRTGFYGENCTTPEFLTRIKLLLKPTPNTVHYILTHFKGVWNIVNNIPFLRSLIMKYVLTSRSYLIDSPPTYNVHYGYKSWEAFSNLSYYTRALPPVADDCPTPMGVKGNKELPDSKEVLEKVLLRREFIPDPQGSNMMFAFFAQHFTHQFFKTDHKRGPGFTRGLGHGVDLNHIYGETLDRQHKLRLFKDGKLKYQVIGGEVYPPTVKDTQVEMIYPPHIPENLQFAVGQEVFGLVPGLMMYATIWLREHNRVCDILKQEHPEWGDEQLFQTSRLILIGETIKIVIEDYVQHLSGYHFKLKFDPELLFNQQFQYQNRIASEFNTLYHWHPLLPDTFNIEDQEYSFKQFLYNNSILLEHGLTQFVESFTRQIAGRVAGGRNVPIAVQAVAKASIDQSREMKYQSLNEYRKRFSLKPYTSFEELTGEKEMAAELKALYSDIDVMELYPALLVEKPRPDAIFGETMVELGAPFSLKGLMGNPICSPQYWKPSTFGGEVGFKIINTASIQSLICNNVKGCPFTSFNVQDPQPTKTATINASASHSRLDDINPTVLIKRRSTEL
Put plainly: Assay for the COX-2 inhibitory activity using RAW 264.7 cell line (PGE2, interferon γ/LPS induced). In kind it is cell-based. To be noted: for inhibition at 0.01 µM: RAW264.7, 10 nM test compound, RAW 264.7 cells, interferon γ + LPS, 18 hours, PGE2, read-out: Cyclooxygenase (COX) Inhibition (%) COX-2 (10 nM); for COX-2 inhibitory activity in comparison with the reference (Valdecoxib): 10 nM, RAW 264.7, comparison in words; for selectivity (COX-2 over COX-1): judged from Table 1, in words. As for the experimental part:
Each well was treated with 250 μM of aspirin and incubated at 37° C. for 2 hours. […] Then, each well was treated with interferon γ (100 units/ml) and Iipopolysaccharide (LPS, 100 ng/ml) and incubated for 18 hours. The culture media were transferred to another test tubes. The concentration of PGE2 was quantified by means of the EIA kit (Cayman Chemicals).
(§1) The percentages of the COX inhibition were calculated according to the following equation: % Inhibition=(concentration of PGE2 in test compound-untreated sample−concentration of PGE2 in test compound-treated sample)/(concentration of PGE2 in test compound-untreated sample)×100

A further assay deals with T2, COX-1 (Homo sapiens, UniProt P23219).
T2 construct: host or cells: U-937 human lymphoma cells
T2 sequence (P23219 24-599): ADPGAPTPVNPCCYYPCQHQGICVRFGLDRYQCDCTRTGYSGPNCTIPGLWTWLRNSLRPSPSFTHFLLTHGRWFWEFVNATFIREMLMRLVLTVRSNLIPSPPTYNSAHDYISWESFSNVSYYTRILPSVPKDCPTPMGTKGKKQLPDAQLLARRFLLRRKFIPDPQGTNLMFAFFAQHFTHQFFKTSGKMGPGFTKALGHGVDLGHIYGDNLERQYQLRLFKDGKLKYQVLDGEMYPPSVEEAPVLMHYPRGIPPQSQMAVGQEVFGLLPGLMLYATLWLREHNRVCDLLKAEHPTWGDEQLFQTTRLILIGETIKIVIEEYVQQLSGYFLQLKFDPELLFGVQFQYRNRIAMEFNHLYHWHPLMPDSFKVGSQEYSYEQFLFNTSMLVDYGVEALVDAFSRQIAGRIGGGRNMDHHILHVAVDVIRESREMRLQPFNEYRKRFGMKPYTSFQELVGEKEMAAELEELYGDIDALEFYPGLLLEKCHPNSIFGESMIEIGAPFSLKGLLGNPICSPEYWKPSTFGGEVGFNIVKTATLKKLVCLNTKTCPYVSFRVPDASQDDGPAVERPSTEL
As to the kind of experiment: Assay for the COX-1 inhibitory activity using U-937 (PGE2 inhibition). The conditions noted are these: for inhibition at 1 µM: 1 μM test compound, U-937 human lymphoma cells, PGE2 inhibition vs DMSO, read-out: Cyclooxygenase (COX) Inhibition (%) COX-1 (1 μM); for COX-1 inhibitory activity in comparison with the reference (Valdecoxib): 1 μM, U-937, comparison in words. In kind it is cell-based. On the procedure:
The collected cells were diluted with HBSS (×1, Hank's balanced salt solution) to a concentration of 1×10^6 cells/ml. 1 ml of the dilute cell solution was placed into each well of 12-well plates. 5 μl of 1 μM solution of a test compound in DMSO and 5 μl of DMSO as a control were added to the wells. The wells were incubated in CO2 incubator at 37° C. for 15 minutes. Separately, 10 mM stock solution of arachidonic acid in ethanol was diluted ten times in ethanol to prepare 1 mM solution of arachidonic acid. Arachidonic acid acts as a substrate. 10 μl of the 1 mM solution of arachidonic acid was added to each well and incubated at CO2 incubator at 37° C. for 30 minutes. The cell solution of each well was placed in a centrifuge test tube and centrifuged at 10,000 rpm at 4° C. for 5 minutes. The concentration of PGE2 in the collected cells and the supernatant was quantified by means of a monoclonal kit (Cayman Chemicals). The percentages of PGE2 inhibition in a group of the test compound-treated cells in relation to a group of the DMSO-treated cells were calculated. Based on the calculated values, the COX-1 inhibitory activities were evaluated.
as §1

Assay [1] concerns carrageenan-induced paw edema. Put plainly: Carrageenan-induced paw edema test in rats. It counts as in vivo. To be noted: oral administration, foot swelling 3 hours after carrageenan injection vs control. As for the experimental part:
2. Carrageenan-induced Paw Edema Test in Rats
The day before the test date, rats were selected in each group so that the average body weight was as close as possible, and the rats were fasted by feed withdrawal prior to the test. At the test date, the rats were orally administered with the test compounds and a control material. After 1 hour, the volume (V0h) of a predetermined portion of the left hind foot of the rats was measured with a plethysmometer. 100 μl of 1% carrageenan solution was subcutaneously injected to the left hind foot of the rats using a syringe with 1 ml capacity. Three hours after the injection of the carrageenan, the volume (V3h) of the predetermined portion of the foot was again measured. The foot swelling variation […] in a group of test compound-treated rats was compared with that of a group of control material-treated rats. With the supposition of 0% inhibition by the control (control material-treated rats), the inhibition percentage of edema of each test compound was determined.

For the molecule `CC(C)(C)c1ccc(-c2nc(C(F)(F)F)nn2-c2ccc(S(C)(=O)=O)cc2)cc1` [Example 36, 5-(4-t-butylphenyl)-1-(4-methanesulfonylphenyl)-3-trifluoromethyl-1H-[1,2,4]triazole], at COX-2, the inhibition at 0.01 µM came to 6.23%. For the same molecule, the inhibition at 1 µM on COX-1 was determined as 21.6%.
On the same counts, the results for `COc1ccc(-c2nc(C(F)(F)F)nn2-c2ccc(S(C)(=O)=O)nn2)cc1` [Example 50, 3-[5-(4-methoxyphenyl)-3-trifluoromethyl-[1.2.4]triazol-1-yl]-6-methanesulfonyl pyridazine] are 4.32% and 10.6%.
For `Cc1ccc(-c2cc(C(F)(F)F)nn2-c2ccc(S(N)(=O)=O)cc2)cc1` [Celecoxib, reference compound], in assay [1], the “Inhibitory effect (% inhibition)” value came to 23.9 % inhibition.
In the case of `CS(=O)(=O)c1ccc(-n2nc(C(F)(F)F)nc2-c2ccc(Cl)cc2)cc1` [Example 26, 5-(4-chlorophenyl)-1-(4-methanesulfonylphenyl)-3-trifluoromethyl-1H-[1,2,4]triazole], the inhibition at 0.01 µM at COX-2 is 10.5%. Moreover, the inhibition at 1 µM at COX-1 was found to be 38.8%.
The corresponding values for `CS(=O)(=O)c1ccc(-n2nc(C(F)(F)F)nc2-c2ccc(Br)cc2)cn1` [Example 47, 2-methanesulfonyl-5-[5-(4-bromophenyl)-3-trifluoromethyl-[1,2,4]triazol-1-yl]pyridine] are 4.26% and 21.9%.
The corresponding values for `COc1ccc(-c2nc(C(F)(F)F)nn2-c2ccc(S(C)(=O)=O)nc2)cc1` [Example 48, 2-methanesulfonyl-5-[5-(4-methoxyphenyl)-3-trifluoromethyl-[1,2,4]triazol-1-yl]pyridine] are 5.63% and 28.8%.
On the same counts, the results for `CS(=O)(=O)c1ccc(-n2nc(C(F)(F)F)nc2/C=C/c2ccccc2)cc1` [Example 33, 5-styryl-1-(4-methanesulfonylphenyl)-3-trifluoromethyl-1H-[1,2,4]triazole] are 19.2% and 19.2%.
Take `CS(=O)(=O)c1ccc(-n2nc(C(F)(F)F)nc2-c2ccc(Br)cc2)nn1` [Example 49, 3-[5-(4-bromophenyl)-3-trifluoromethyl-[1,2,4]triazol-1-yl]-6-methanesulfonyl pyridazine]: the inhibition at 0.01 µM on COX-2 came out at 3.21%. In addition, on COX-1, the inhibition at 1 µM was found to be 14.6%.
The corresponding values for `CS(=O)(=O)c1ccc(-n2nc(C(F)(F)F)nc2-c2ccc([N+](=O)[O-])cc2Cl)cc1` [Example 38, 5-(4-nitro-2-chlorophenyl)-1-(4-methanesulfonylphenyl)-3-trifluoromethyl-1H-[1,2,4]triazole] are 5.95% and 19.5%.
Regarding `CS(=O)(=O)c1ccc(-n2nc(C(F)(F)F)nc2-c2cccc(Cl)c2)cc1` [Example 30, 5-(3-chlorophenyl)-1-(4-methanesulfonylphenyl)-3-trifluoromethyl-1H-[1,2,4]triazole], the inhibition at 0.01 µM at COX-2 is 7.32%. Further, on COX-1, the inhibition at 1 µM was 18.6%.
On the same counts, the results for `COc1ccc(-c2nc(C(F)(F)F)nn2-c2ccc(S(C)(=O)=O)cc2)c(OC)c1` [Example 32, 5-(2,4-dimethoxyphenyl)-1-(4-methanesulfonylphenyl)-3-trifluoromethyl-1H-[1,2,4]triazole] are 12.6% and 19.9%.
Consider `COc1ccc2c(c1)c(CC(=O)O)c(C)n2C(=O)c1ccc(Cl)cc1` [Indomethacine, reference compound], for which, in assay [1], the “Inhibitory effect (% inhibition)” value is recorded as 40.1 % inhibition.
`COc1ccc(-c2nc(C(F)(F)F)nn2-c2ccc(S(C)(=O)=O)cc2)cc1Cl` [Example 39, 5-(3-chloro-4-methoxyphenyl)-1-(4-methanesulfonylphenyl)-3-trifluoromethyl-1H-[1,2,4]triazole]: at COX-2, the “COX-2 inhibitory activity in comparison with the reference (Valdecoxib)” value is recorded as “remarkably enhanced”, the inhibition at 0.01 µM was found to be 32.6% and the “selectivity (COX-2 over COX-1)” value is given as “excellent selectivities”. For the same molecule, at COX-1, the inhibition at 1 µM stood at 12.5% and the “COX-1 inhibitory activity in comparison with the reference (Valdecoxib)” value is “the same as or lower”.
Regarding `CS(=O)(=O)c1ccc(-n2nc(C(F)(F)F)nc2-c2ccncc2)cc1` [Example 41, 4-[2-(4-methanesulfonylphenyl)-5-trifluoromethyl-2H-[1,2,4]triazol-3-yl]pyridine], the inhibition at 0.01 µM on COX-2 turned out to be 8.88%. For the same molecule, on COX-1, the inhibition at 1 µM is 16.7%.
On the same counts, the results for `CS(=O)(=O)c1ccc(-n2nc(C(F)(F)F)nc2-c2ccc(C#N)cc2)cc1` [Example 37, 5-(4-cyanophenyl)-1-(4-methanesulfonylphenyl)-3-trifluoromethyl-1H-[1,2,4]triazole] are 8.92% and 23.7%.
On the same counts, the results for `CS(=O)(=O)c1ccc(-n2nc(C(F)(F)F)nc2-c2cccc(C(F)(F)F)c2)cc1` [Example 31, 5-(3-trifluoromethylphenyl)-1-(4-methanesulfonylphenyl)-3-trifluoromethyl-1H-[1,2,4]triazole] are 5.66% and 16.5%.
The corresponding values for `CS(=O)(=O)c1ccc(-n2nc(C(F)(F)F)nc2-c2cccc(Br)c2)cc1` [Example 29, 5-(3-bromophenyl)-1-(4-methanesulfonylphenyl)-3-trifluoromethyl-1H-[1,2,4]triazole] are 6.23% and 16.7%.
Consider `Cc1ccc(-c2nc(C(F)(F)F)nn2-c2ccc(S(N)(=O)=O)cc2)cc1` [Example 42, 4-(5-p-tolyl-3-trifluoromethyl-[1,2,4]triazol-1-yl)benzenesulfonamide], for which the inhibition at 0.01 µM on COX-2 was determined as 12.1%. Besides, at COX-1, the inhibition at 1 µM was determined as 38%.
Regarding `CS(=O)(=O)c1ccc(-n2nc(C(F)(F)F)nc2-c2ccccc2)cc1` [Example 25, 1-(4-methanesulfonylphenyl)-5-phenyl-3-trifluoromethyl-1H-[1,2,4]triazole], the inhibition at 0.01 µM on COX-2 is 7.62%. Also, on COX-1, the inhibition at 1 µM amounted to 29.2%.
As for `CS(=O)(=O)c1ccc(-n2nc(C(F)(F)F)nc2-c2ccc3c(c2)OCO3)cc1` [Example 40, 5-benzo[1,3]dioxol-5-yl-1-(4-methanesulfonylphenyl)-3-trifluoromethyl-1H-[1,2,4]triazole], on COX-2, the “COX-2 inhibitory activity in comparison with the reference (Valdecoxib)” value is “remarkably enhanced”, the inhibition at 0.01 µM came out at 33.7% and the “selectivity (COX-2 over COX-1)” value is given as “excellent selectivities”. Further, on COX-1, the inhibition at 1 µM worked out at 18.7% and the “COX-1 inhibitory activity in comparison with the reference (Valdecoxib)” value was “the same as or lower”.

The inhibition is how much of the control response was suppressed.
